Nine compounds from EP1985624A2, “Single step method of radiofluorination of biologically active compounds or biomolecules” (Bayer Schering Pharma Aktiengesellschaft, priority 2007, dated 2008) can be followed below.

*1 amine or outer side, *2 acyl side, *3 side chain or, on linkers, in order; H or OH if unused. Where a SMILES comes first, the peptide text is derived from it. [ ]: non-standard residue; d: D form. The star is where a group is joined. X3 = CC(C)[C@H](N[*:1])[C@H](O)CC(=O)[*:2]; Benzoyl(3-CN,4-F) = N#Cc1cc(C(=O)*)ccc1F; Benzoyl(3,4-F2) = O=C(c1ccc(F)c(F)c1)*; NMeH = CN[C@@H](Cc1c[nH]cn1)C(=O)O; X1 = CCC(C)C(CCC(=O)[*:2])N[*:1]; β3hI = CC[C@H](C)[C@H](N)CC(=O)O; Tle = CC(C)(C)[C@H](N)C(=O)O; β3hL = CC(C)C[C@H](N)CC(=O)O; Ava = NCCCCC(=O)O; βAla = NCCC(=O)O; Sar = CNCC(=O)O Some results are limits rather than exact numbers.

For one series, the target named is T1, human bombesin 2 receptor (GRPR) (Homo sapiens, UniProt P30550).
T1 construct: using GRPR-containing cell membranes (Perkin Elmer); purchased Perkin Elmer
T1 sequence (P30550 whole entry): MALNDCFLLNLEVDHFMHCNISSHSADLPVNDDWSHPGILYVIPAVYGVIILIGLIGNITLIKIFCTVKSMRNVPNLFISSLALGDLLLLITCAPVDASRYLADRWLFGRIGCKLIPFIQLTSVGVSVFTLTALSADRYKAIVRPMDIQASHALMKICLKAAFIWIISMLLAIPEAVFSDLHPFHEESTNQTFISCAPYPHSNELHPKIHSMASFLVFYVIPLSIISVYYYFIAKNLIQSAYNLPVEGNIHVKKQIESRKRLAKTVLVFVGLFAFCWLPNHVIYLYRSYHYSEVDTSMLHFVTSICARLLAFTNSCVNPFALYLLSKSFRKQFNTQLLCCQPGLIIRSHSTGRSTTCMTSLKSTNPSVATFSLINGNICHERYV
Briefly: competitive receptor-binding assay (scintillation proximity assay) with 125I-[Tyr4]-Bombesin.
Details: not given
The procedure: In vitro binding affinity and specificity of Bombesin analogs for the human bombesin 2 receptor (GRPR) were assessed via a competitive receptor-binding assay using ^125I-[Tyr^4]-Bombesin (Perkin Elmer; specific activity 81.4 TBq/mmol) as GRPR-specific radioligand. The assay was performed based on the scintillation proximity assay (SPA) technology (Carpenter JW et al., Meth Mol Biol 2002; 190:31-49) using GRPR-containing cell membranes (Perkin Elmer) and wheat germ agglutinin (WGA)-coated PVT beads (Amersham Bioscience).
Briefly, GRPR-containing membranes and WGA-PVT beads were mixed in assay buffer (50 mM Tris/HCl pH 7.2, 5 mM MgCl2, 1 mM EGTA, Complete protease inhibitor (Roche Diagnostics GmbH) and 0.3% PEI) to give final concentrations of approximately 100 µg/ml protein and 40 mg/ml PVT-SPA beads. The ligand ^125I-[Tyr^4]-Bombesin was diluted to 0.5 nM in assay buffer. The test compounds were dissolved in DMSO to give 1 mM stock solutions Later on, they were diluted in assay buffer to 8 pM - 1.5 µM.
The assay was then performed as follows: First, 10 µl of compound solution to be tested for binding were placed in white 384 well plates (Optiplate-384, Perkin-Elmer). At next, 20 µl GRPR/WGA-PVT bead mixture and 20 µl of the ligand solution were added. After 90 minutes incubation at room temperature, another 50 µl of assay buffer were added, the plate sealed and centrifuged for 10 min at 520xg at room temperature. Signals were measured in a TopCount (Perkin Elmer) for 1 min integration time per well. The IC50 was calculated by nonlinear regression using the GraFit data analysis software (Erithacus Software Ltd.). Furthermore, the KI was calculated based on the IC50 for test compound as well as the KD and the concentration of the ligand ^125I-[Tyr^4]-Bombesin. Experiments were done with quadruple samples.
The Binding affinities measured for all the cold F-19 compounds are listed Table 2.
Briefly, GRPR-containing membranes and WGA-PVT beads were mixed in assay buffer (50 mM Tris/HCl pH 7.2, 5 mM MgCl2, 1 mM EGTA, Complete protease inhibitor (Roche Diagnostics GmbH) and 0.3% PEI) to give final concentrations of approximately 100 µg/ml protein and 40 mg/ml PVT-SPA beads. The ligand ^125I-[Tyr^4]-Bombesin was diluted to 0.5 nM in assay buffer. The test compounds were dissolved in DMSO to give 1 mM stock solutions Lateron, they were diluted in assay buffer to 8 pM - 1.5 µM.
In general terms: Scintillation proximity formats need no separation of bound from free tracer.
For `CCC(C)C(CCC(=O)N[C@@H](CC(C)C)C(N)=O)NC(=O)[C@H](Cc1c[nH]cn1)NC(=O)CNC(=O)[C@@H](NC(=O)[C@H](C)NC(=O)[C@H](Cc1c[nH]c2ccccc12)NC(=O)[C@H](CCC(N)=O)NC(=O)CCCCNC(=O)c1ccc(F)c(C#N)c1)C(C)C` (stereo partly drawn) [IIB-a-17, 4-[19]-Fluoro-3-cyano-benzoyl-Ava-Gln-Trp-Ala-Val-Gly-His-4-Am,S-MeHpA-Leu-NH2] ({Benzoyl(3-CN,4-F)-Ava}-QWAVGH[X1]L-NH2), the affinity, expressed as Ki, was 0.0019 µM.

For `CCC(C)C(CCC(=O)N[C@@H](CC(C)C)C(N)=O)NC(=O)[C@H](Cc1c[nH]cn1)N(C)C(=O)CNC(=O)[C@@H](NC(=O)[C@H](C)NC(=O)[C@H](Cc1c[nH]c2ccccc12)NC(=O)[C@H](CCC(N)=O)NC(=O)CCCCNC(=O)c1ccc(F)c(F)c1)C(C)C` (stereo partly drawn) [IIB-a-50, 3,4-[19]Difluorobenzoyl-Ava-Gln-Trp-Ala-Val-Gly-NMeHis-4-Am,5-MeHpA-Leu-NH2] ({Benzoyl(3,4-F2)-Ava}-QWAVG[NMeH][X1]L-NH2), the inhibitory constant (Ki) (as a rule, the equilibrium dissociation constant of an inhibitor or competing ligand from its target) is > 0.025 µM.

In the case of `CC(C)C[C@H](NC(=O)C[C@@H](O)[C@@H](NC(=O)[C@H](Cc1c[nH]cn1)NC(=O)CN(C)C(=O)[C@@H](NC(=O)[C@H](C)NC(=O)[C@H](Cc1c[nH]c2ccccc12)NC(=O)[C@H](CCC(N)=O)NC(=O)CCCCNC(=O)c1ccc(F)c(F)c1)C(C)C)C(C)C)C(N)=O` [IIB-a-51] ({Benzoyl(3,4-F2)-Ava}-QWAV[Sar]H[X3]L-NH2), the inhibitory constant (Ki) is > 0.025 µM.

With `CC(C)C[C@H](NC(=O)[C@H](Cc1ccccc1)NC(=O)[C@H](Cc1c[nH]cn1)N(C)C(=O)CCNC(=O)[C@@H](NC(=O)[C@H](C)NC(=O)[C@H](Cc1c[nH]c2ccccc12)NC(=O)[C@H](CCC(N)=O)NC(=O)CCCCNC(=O)c1ccc(F)c(F)c1)C(C)C)C(N)=O` [IIB-a-54] ({Benzoyl(3,4-F2)-Ava}-QWAV[βAla][NMeH]FL-NH2), the inhibitory constant (Ki) amounted to 0.0004 µM.

Consider `CC(C)C[C@H](NC(=O)[C@H](Cc1ccccc1)NC(=O)[C@@H](Cc1c[nH]cn1)NC(=O)CCNC(=O)[C@@H](NC(=O)[C@H](C)NC(=O)[C@H](Cc1c[nH]c2ccccc12)NC(=O)[C@H](CCC(N)=O)NC(=O)CCCCNC(=O)c1ccc(F)c(F)c1)C(C)C)C(N)=O` [IIB-a-55] ({Benzoyl(3,4-F2)-Ava}-QWAV[βAla][dH]FL-NH2), for which the Ki was 0.019 µM.

The series is the same for the next values; noted with them: GRPR-containing cell membranes, 125I-[Tyr4]-Bombesin, 90 minutes at room temperature; Table 2, B1 = CO; read-out: Ki.
Regarding `CC(C)C[C@@H](CC(=O)N[C@@H](CC(C)C)C(N)=O)NC(=O)[C@H](Cc1c[nH]cn1)NC(=O)CCNC(=O)[C@@H](NC(=O)[C@H](C)NC(=O)[C@H](Cc1c[nH]c2ccccc12)NC(=O)[C@H](CCC(N)=O)NC(=O)CCCCNC(=O)c1ccc(F)c(F)c1)C(C)C` [IIB-a-56] ({Benzoyl(3,4-F2)-Ava}-QWAV[βAla]H[β3hL]L-NH2), the inhibition constant Ki turned out to be 0.045 µM.

`CC[C@H](C)[C@@H](CC(=O)N[C@@H](CC(C)C)C(N)=O)NC(=O)[C@H](Cc1c[nH]cn1)NC(=O)CCNC(=O)[C@@H](NC(=O)[C@H](C)NC(=O)[C@H](Cc1c[nH]c2ccccc12)NC(=O)[C@H](CCC(N)=O)NC(=O)CCCCNC(=O)c1ccc(F)c(F)c1)C(C)C` [IIB-a-57] ({Benzoyl(3,4-F2)-Ava}-QWAV[βAla]H[β3hI]L-NH2): the Ki was > 0.05 µM.

As for `CC(C)C[C@@H](CC(=O)N[C@H](C(N)=O)C(C)(C)C)NC(=O)[C@H](Cc1c[nH]cn1)NC(=O)CCNC(=O)[C@@H](NC(=O)[C@H](C)NC(=O)[C@H](Cc1c[nH]c2ccccc12)NC(=O)[C@H](CCC(N)=O)NC(=O)CCCCNC(=O)c1ccc(F)c(F)c1)C(C)C` [IIB-a-58] ({Benzoyl(3,4-F2)-Ava}-QWAV[βAla]H[β3hL][Tle]-NH2), the Ki is > 0.05 µM.

Test system in another series: not listed separately
Put plainly: human serum stability of the F-18 labeled peptide (HPLC purity). It is filed as in vitro ADME. Particulars: 37°C for 90 min, purity assessed by HPLC (phosphate buffer and TFA mobile phases). The procedure:
To qualify for pre-clinical and clinical use, it is necessary to establish the stability of the compound in human serum. The compound a 70 µL of human serum containing the F-18 labeled peptide (5.89 MBq/mL) was incubated at 37°C for 90 min. An aliquot was withdrawn at various intervals and the purity assessed by HPLC. The purity was evaluated in under two different conditions. Potassium hydrogen phosphate buffer system was used as a mobile phase to measure the stability of attached F-18 label. Column: C-18, Gradient: A: 10mM K2HPO4 pH:9,04; B: 10mM K2HPO4 pH:9,04/ACN 3/ 7; Flow rate: 2 mL, 5% A to 95% B in 7 min. [formula] [formula] [formula]
Trifluoroacetic acid system was used as a mobile phase to measure the stability of the entire molecule. Column: C-18, Gradient: A: 10% CH3CN: 90% H2O, B:90% CH3CN: 10% H2O containing 0.1 % TFA. [formula] [formula] [formula]
Consider “4-[18]Fluoro-3-cyano-benzoyl-Arg-Ava-Gln-Trp-Ala-Val-NMeGly-His-Sta-Leu-NH2 [IIA-a-1]”, for which the “stability in human serum” value is recorded as “stable in human serum”.
